“And” between values parts separate entries of the source, which are not always exact repeats. Equal entries are not always repeated.
Test system: cGMP-PDE I
Test: cGMP-PDE I inhibitory activity (cyclic nucleotide hydrolysis, isolated PDE isozyme)
Type: biochemical, various animal species and man
Settings: for IC50: values marked * are from two separate experimental runs
Description: Multiple isozymic forms of cyclic nucleotide phosphodiesterase (PDE) have been identified in mammalian cells. […] Elevation of intracellular cGMP in vascular smooth muscle triggers a cascade of events that leads to a reduction in muscle tone while elevations in renal tubule cell cGMP stimulates natriuresis and diuresis. Vascular smooth muscle and renal cells contain a phosphodiesterase isozyme that has a low Km (1 μM) for the hydrolysis of cGMP. This isozyme has been referred to as the cGMP-PDE or cGMP-PDE I since it elutes from an anion-exchange sepharose resin in the first peak of PDE activity at a sodium acetate concentration between 150-200 mM. Thus inhibition of the cGMP-PDE isozyme is a viable subcellular mechanism by which increases in cGMP can produce a reduction in total peripheral resistance and a stimulation of natriuresis and diuresis. The development of cGMP-PDE inhibitors represents an approach for the discovery of agents useful for treating heart failure and hypertension. For example, compounds having high inhibitory potency for the cGMP-PDE are expected to lower blood pressure and induce natriuresis and diuresis.
The cGMP-PDE and other PDE isozymes were isolated from cardiovascular tissues (heart and aorta) of various animal species and man by anion-exchange and affinity chromatography as described by Silver et al., Sec. Messeng. Phos. 13:13-25, 1991; PDE activity, in the presence and absence of test compounds was determined essentially as described by Thompson et al., Adv. Cyclic Nucleotide Res. 10:69-92. To determine the potency and selectivity of compounds as PDE inhibitors, compounds are screened for their effect on cyclic nucleotide hydrolysis at 10 μM. If ≥50% inhibition of PDE activity is observed, an IC50 value (concentration of compound causing 50% reduction in PDE activity) and corresponding 95% confidence intervals are generated. The IC50 values are calculated from concentration-response curves as described by Tallarida and Murray, Manual of Pharmacologic Calculations with Computer Programs, Procedure 8, Graded Dose-response, pp. 14-19, Springer-Verlag, N.Y., 1981.

Row | SMILES | Percent Inhibition cGMP-PDE I (1 μM) [%] | Percent Inhibition cGMP-PDE I (10 μM) [%] | Percent Inhibition cGMP-PDE I (0.1 μM) [%] | IC50
1 | Cc1[nH]n(Cc2cc(NS(=O)(=O)c3cccc4cccnc34)ccc2Cl)c2nc(-c3ccncc3)nc(=O)c1-2 [Example 108, 1-[2-Chloro-5-((8-quinolinylsulfonyl)amino)phenylmethyl]-3-methyl-6-(4-pyridyl)-pyrazolo[3,4-d]pyrimidin-4-one] | 38 | 86 |  | 
2 | CCc1[nH]n(C2CCCC2)c2nc(-c3ccnc(C)c3)nc(=O)c1-2 [Example 118, 1-Cyclopentyl-3-ethyl-6-(2-methyl-4-pyridyl)pyrazolo[3,4-d]pyrimidin-4-one] | 61 |  | 22 | 660 nM
3 | Cc1nn(CCCCCCCCC(=O)O)c2nc(-c3ccncc3)[nH]c(=O)c12 [Example 78] | 54 |  |  | 
4 | CCCCCCCCn1nc(C)c2c(=O)[nH]c(-c3ccncc3)nc21 [Example 88] | 32 |  |  | 
5 | O=c1nc(-c2ccncc2)nc2n(C3CCCC3)[nH]c(Cc3ccccc3)c1-2 [Example 15e, 1-Cyclopentyl-3-phenylmethyl-6-(4-pyridyl)-pyrazolo[3,4-d]pyrimidin-4-one] | 38 | 43 |  | 
6 | Cc1nn(C2CCS(=O)(=O)C2)c2nc(-c3ccncc3)[nH]c(=O)c12 (stereo not shown) [Example 18c, 1-(3-Tetrahydrothienyl-1,1-dioxide)-3-methyl-6-(4-pyridyl)pyrazolo[3,4-d]pyrimidin-4-one methanesulfonate] | 0 | 45 |  | 
7 | CC(C)(C)n1[nH]c(CC2CCCCC2)c2c(=O)nc(-c3ccncc3)nc1-2 [Example 5e, 1-tert-Butyl-3-(cyclohexylmethyl)-6-(4-pyridyl)-pyrazolo[3,4-d]pyrimidin-4-one] |  |  |  | 260 nM
8 | Cc1nn(Cc2ccccc2Cl)c2nc(-c3ccncc3)[nH]c(=O)c12 [Example 82] |  |  |  | 550 nM
9 | CCc1nn(C(C)(C)C)c2nc(-c3ccncc3)[nH]c(=O)c12 [Example 94] |  |  |  | 480 nM
10 | O=c1[nH]c(-c2ccncc2)nc2c1c(Br)nn2C1CCCC1 [Example 73] |  |  |  | 1800 nM
11 | Cc1nn(CCCCCC(=O)O)c2nc(-c3ccncc3)[nH]c(=O)c12 [Example 80] |  |  |  | 2700 nM
12 | Cc1nn(C2CCCCC2)c2nc(-c3ccncc3)[nH]c(=O)c12 [Example 3e, 1-Cyclohexyl-3-methyl-6-(4-pyridyl)-pyrazolo[3,4-d]pyimidin-4-one] |  |  |  | 460 nM and 560 nM
13 | Cc1[nH]n(C2CCCC2)c2nc(-c3cccc4cccnc34)nc(=O)c1-2 [Example 12c, 1-Cyclopentyl-3-methyl-6-(8-quinolinyl)-pyrazolo-[3,4-d]pyrimidin-4-one] |  |  |  | 690 nM
14 | Cc1[nH]n(Cc2ccc(C(=O)O)cc2)c2nc(-c3ccncc3)nc(=O)c1-2 [Example 111, 1-(4-Carboxylphenylmethyl)-3-methyl-6-(4-pyridyl)-pyrazolo[3,4-d]pyrimidin-4-one] | 0 | 24 |  | 
15 | CCc1[nH]n(C2CCCC2)c2nc(-c3ccnc(-n4ccnc4)c3)nc(=O)c1-2 [Example 121c, 1-Cyclopentyl-3-ethyl-6-[2-(1-imidazolyl)-4-pyridyl]pyrazolo[3,4-d]pyrimidin-4-one] | 68 |  | 11 | 240 nM
16 | Cc1[nH]n(Cc2cccc(C(N)=O)c2)c2nc(-c3ccncc3)nc(=O)c1-2 [Example 113, 1-(3-Carbamoylphenylmethyl)-3-methyl-6-(4-pyridyl) pyrazolo[3,4-d]pyrimidin-4-one] | 0 | 48 |  | 
17 | Cc1[nH]n(C2CCCO2)c2nc(-c3ccncc3)nc(=O)c1-2 (stereo not shown) [Example 104, 1-(2-tetrahydrofuranyl)-3-methyl-6-(4-pyridyl)-pyrazolo-[3,4-d]pyrimidin-4-one] |  |  |  | 12400 nM
18 | Cc1[nH]n(Cc2cc([N+](=O)[O-])ccc2Cl)c2nc(-c3ccncc3)nc(=O)c1-2 [Example 106, 1-(2-Chloro-5-nitrophenylmethyl)-3-methyl-6-(4-pyridyl)pyrazolo[3,4-d]pyrimidin-4-one] | 24 | 63 |  | 

— patent US5541187A, “6-heterocycyclyl pyrazolo[3,4-d]pyrimidin-4-ones and compositions and method of use thereof” (Sterling Winthrop Inc., priority 1993, dated 1996)
